In the experiment the target is human recombinant PDE4B1 enzyme (Homo sapiens (Human), UniProt Q07343). Description: Inhibition of PDE4B1 activity by cAMP HTRF assay. Format: biochemical. The note with it: human recombinant PDE4B1, cAMP 40 nM, pH 7.4. The method, then:
Determination of the inhibition of the compounds on PDE4B1 activity by using cAMP HTRF® assay
The inhibitory effect of the compounds on human PDE4B1 enzyme activity was determined by quantifying the 5′-adenosine monophosphate (5′-AMP) formed from 3′,5′-cyclic adenosine monophosphate (cAMP).
The test compound or water (control) and human recombinant PDE4B1 enzyme (4.8 U) were mixed in a buffer solution (pH 7.4) consisting of 1× Hanks' balanced salt solution (HBSS), 5 mM HEPES, 3 mM MgCl2, and 0.1% BSA and incubated for 10 min. A cAMP enzyme substrate (final concentration 40 nM) was added, and the mixture was incubated at room temperature for 60 min. Then a fluorescent acceptor (Dye2 labeled with cAMP), a fluorescent donor (anti-cAMP antibody labeled with europium cryptate) and a non-specific phosphodiesterase inhibitor IBMX (3-isobutyl-1-methyl xanthine; final concentration 1 mM) were added. After 60 min, the fluorescence transfer related to the amount of remaining cAMP was measured on a microplate reader (Rubystar, BMG) at λex=337 nm, λem=620 nm and λem=665 nm. The enzyme activity is calculated from the ratio of the signals measured at 665 nm and 620 nm. The results are expressed as percent inhibition of the enzyme activity of the control (without PDE4 inhibitor). The enzyme was omitted for measurement of the basic control. The IC50 value (IC50=the concentration that caused the half-maximum inhibition of the specific activity of the control) is derived from dose-response measurements with eight different concentrations (n=2; repeated 2 times)
Sequence of human recombinant PDE4B1 enzyme (Q07343 whole entry): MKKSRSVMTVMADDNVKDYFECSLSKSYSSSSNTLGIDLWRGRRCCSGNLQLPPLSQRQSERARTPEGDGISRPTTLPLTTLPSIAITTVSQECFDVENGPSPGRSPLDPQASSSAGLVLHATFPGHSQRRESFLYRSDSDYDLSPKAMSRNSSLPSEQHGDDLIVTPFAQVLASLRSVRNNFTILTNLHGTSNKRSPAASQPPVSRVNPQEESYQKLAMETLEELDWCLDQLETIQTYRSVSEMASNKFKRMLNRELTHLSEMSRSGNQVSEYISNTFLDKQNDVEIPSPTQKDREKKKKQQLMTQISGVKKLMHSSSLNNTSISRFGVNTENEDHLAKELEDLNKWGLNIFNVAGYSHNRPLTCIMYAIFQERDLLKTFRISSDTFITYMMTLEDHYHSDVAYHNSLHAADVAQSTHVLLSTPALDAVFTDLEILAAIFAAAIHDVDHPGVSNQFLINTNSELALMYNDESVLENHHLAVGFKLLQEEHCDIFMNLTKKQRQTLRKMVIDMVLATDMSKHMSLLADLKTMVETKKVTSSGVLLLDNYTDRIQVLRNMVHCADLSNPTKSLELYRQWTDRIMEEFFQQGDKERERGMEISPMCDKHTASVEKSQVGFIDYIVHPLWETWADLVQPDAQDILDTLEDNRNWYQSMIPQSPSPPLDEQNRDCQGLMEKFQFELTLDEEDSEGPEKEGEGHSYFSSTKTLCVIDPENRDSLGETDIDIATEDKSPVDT
On to `COc1ccc(/C=C/n2c(C)cc(=O)cc2C)cc1OC1CC=CC1` [Example 63, (E)-1-(3-(cyclopent-3-en-1-yloxy)-4-methoxystyryl)-2,6-dimethylpyridin-4(1H)-one], for which the IC50 is 11.1 nM.
Turning to `C=CCOc1cc(/C=C/n2c(C)cc(=O)cc2C)ccc1OC` [Example 64, (E)-1-(3-allyloxy-4-methoxy-styryl)-2,6-dimethylpyridin-4(1H)-one], the IC50 stood at 43 nM.
As for `COc1ccc(/C=C/n2c(C)cc(=O)cc2C)cc1OCC=C(C)C` [Example 65, (E)-1-((3-(3-methylbut-2-en-1-yl)oxy-4-methoxy)-styryl)-2,6-dimethylpyridin-4(1H)-one], the figure is 520 nM; as for `C#CCOc1cc(/C=C/n2c(C)cc(=O)cc2C)ccc1OC` [Example 66], 270 nM.
Turning to `CC#CCOc1cc(/C=C/n2c(C)cc(=O)cc2C)ccc1OC` [Example 67, (E)-1-(3-(but-2-yn-1-yloxy)-4-methoxystyryl)-2,6-dimethylpyridin-4(1H)-one], the IC50 was found to be 170 nM.
`COc1ccc(/C=C/n2c(C)cc(=O)cc2C)cc1OC1COC1` [Example 68, (E)-1-((3-(oxacyclobutan-3-yl-oxy)-4-methoxy)-styryl)-2,6-dimethylpyridin-4(1H)-one]: the half-maximal inhibitory concentration (IC50) amounted to 27 nM.
Take `COc1ccc(/C=C/n2c(C)cc(=O)cc2C)cc1OC1CSC1` [Example 69, (E)-1-((3-(thiacyclobutan-3-yl-oxy)-4-methoxy)-styryl)-2,6-dimethylpyridin-4(1H)-one]: the half-maximal inhibitory concentration (IC50) was 5200 nM.
Regarding `COc1ccc(/C=C/n2c(C)cc(=O)cc2C)cc1OC1CCCO1` (stereo not drawn) [Example 70, (E)-1-((3-(tetrahydrofuran-2-yl)oxy-4-methoxy)-styryl)-2,6-dimethylpyridin-4(1H)-one], the IC50 is 8.1 nM.
For the molecule `CNC(=O)COc1cc(/C=C/n2c(C)cc(=O)cc2C)ccc1OC` [Example 71, (E)-2-(5-(2-(2,6-dimethyl-4-carbonylpyridin-1(4H)-yl)ethenyl)-2methoxyphenoxy)-N-methylacetamide], the IC50 was 1420 nM.
Consider `COc1ccc(/C=C/n2c(C)cc(=O)cc2C)cc1OC(=O)C1CC1` [Example 72, (E)-1-((3-cyclopropylformyloxy-4-methoxy)-styryl)-2,6-dimethylpyridin-4(1H)-one], for which the concentration for half-maximal inhibition (IC50) came to 3900 nM.
In the case of `COc1ccc(/C=C/n2c(C)cc(=O)cc2C)cc1OCSC` [Example 74, (E)-1-(3-methylthiomethoxy-4-methoxystyryl)-2,6-dimethylpyridin-4(1H)-one], the IC50 is 38 nM.
As for `COc1ccc(/C=C/n2c(C)cc(=O)cc2C)cc1OC[S+](C)[O-]` (stereo not drawn) [Example 75, (E)-1-(3-methylsulfoxidemethoxy-4-methoxystyryl)-2,6-dimethylpyridin-4(1H)-one], the IC50 was 290 nM.
Take `COc1ccc(/C=C/n2c(C)cc(=O)cc2C)cc1OCS(C)(=O)=O` [Example 76, (E)-1-(3-methylsulfonemethoxy-4-methoxystyryl)-2,6-dimethylpyridin-4(1H)-one]: the IC50 is 105 nM.
On to `COc1ccc(/C=C/n2c(C)cc(=O)cc2C)cc1OCC[S+](C)[O-]` (stereo not drawn) [Example 78, (E)-1-(3-methylsulfoxideethoxy-4-methoxystyryl)-2,6-dimethylpyridin-4(1H)-one], for which the 50% inhibitory concentration (IC50) worked out at 36 nM.
Consider `COc1ccc(/C=C/n2c(C)cc(=O)cc2C)cc1OCCS(C)(=O)=O` [Example 79, (E)-1-(3-methylsulfoneethoxy-4-methoxystyryl)-2,6-dimethylpyridin-4(1H)-one], for which the concentration for half-maximal inhibition (IC50) was determined as 160 nM.
With `COc1ccc(/C=C/n2c(C)cc(=O)cc2C)cc1OC1CCS(=O)(=O)C1` (stereo not drawn) [Example 81, (E)-1-(3-((1,1,-dioxotetrahydrothiophen-3-yl)oxy)-4-methoxystyryl)-2,6-dimethylpyridin-4(1H)-one], the IC50 amounted to 1.15 nM.
As for `COc1ccc(/C=C/n2c(C)cc(=O)cc2C)cc1O[C@H]1CCSC1` [Example 82, (S,E)-1-(3-(tetrahydrothiophen-3-yl)oxy-4-methoxystyryl)-2,6-dimethylpyridin-4(1H)-one], the 50% inhibitory concentration (IC50) amounted to 7.5 nM.
With `COc1ccc(/C=C/n2c(C)cc(=O)cc2C)cc1O[C@H]1CCS(=O)(=O)C1` [Example 84, (S,E)-1-(3-((1,1-dioxotetrahydrothiophen-3-yl)oxy)-4-methoxy-styryl)-2,6-dimethylpyridin-4(1H)-one], the 50% inhibitory concentration (IC50) came to 230 nM.
As for `COc1ccc(/C=C/n2c(C)cc(=O)cc2C)cc1O[C@@H]1CCSC1` [Example 85, (R,E)-1-(3-(tetrahydrothiophen-3-yl)oxy-4-methoxystyryl)-2,6-dimethylpyridin-4(1H)-one], the figure is 3.8 nM; as for `COc1ccc(/C=C/n2c(C)cc(=O)cc2C)cc1O[C@@H]1CCS(=O)(=O)C1` [Example 87, (R,E)-1-(3-((1,1-dioxotetrahydrothiophen-3-yl)oxy)-4-methoxy-styryl)-2,6-dimethylpyridin-4(1H)-one], 78 nM.
Regarding `COc1cc(/C=C/n2c(C)cc(=O)cc2C)ccc1OC(F)F` [Example 89, (E)-1-(3-methoxy-4-difluoromethoxy-styryl)-2,6-dimethylpyridin-4(1H)-one], the IC50 amounted to 6.9 nM.
As for `CSCOc1cc(/C=C/n2c(C)cc(=O)cc2C)ccc1OC(F)F` [Example 90, (E)-1-(3-methylthiomethoxy-4-difluoromethoxy-styryl)-2,6-dimethylpyridin-4(1H)-one], the figure is 3.8 nM; as for `Cc1cc(=O)cc(C)n1/C=C/c1ccc(OC(F)F)c(OC[S+](C)[O-])c1` (stereo not drawn) [Example 91, (E)-1-(3-methylsulfoxidemethoxy-4-difluoromethoxystyryl)-2,6-dimethylpyridin-4(1H)-one], 75 nM.
`Cc1cc(=O)cc(C)n1/C=C/c1ccc(OC(F)F)c(OCS(C)(=O)=O)c1` [Example 92, (E)-1-(3-methylsulfonemethoxy-4-difluoromethoxy-styryl)-2,6-dimethylpyridin-4(1H)-one]: the half-maximal inhibitory concentration (IC50) was determined as 94 nM.
`CSCCOc1cc(/C=C/n2c(C)cc(=O)cc2C)ccc1OC(F)F` [Example 93, (E)-1-(3-methylthioethoxy-4-difluoromethoxystyryl)-2,6-dimethylpyridin-4(1H)-one]: the IC50 turned out to be 12.9 nM.
`Cc1cc(=O)cc(C)n1/C=C/c1ccc(OC(F)F)c(OCC[S+](C)[O-])c1` (stereo not drawn) [Example 94, (E)-1-(3-methylsulfoxideethoxy-4-difluoromethoxystyryl)-2,6-dimethylpyridin-4(1H)-one]: the IC50 was 137 nM.
For `Cc1cc(=O)cc(C)n1/C=C/c1ccc(OC(F)F)c(OCCS(C)(=O)=O)c1` [Example 95, (E)-1-(3-methylsulfoneethoxy-4-difluoromethoxystyryl)-2,6-dimethylpyridin-4(1H)-one], the IC50 was 260 nM.
Turning to `Cc1cc(=O)cc(C)n1/C=C/c1ccc(OC(F)F)c(OC2CCSC2)c1` (stereo not drawn) [Example 96, (E)-1-((3-(tetrahydrothiophen-3-yl)oxy-4-difluoromethoxy)-styryl)-2,6-dimethylpyridin-4(1H)-one], the IC50 came out at 2.4 nM.
Consider `Cc1cc(=O)cc(C)n1/C=C/c1ccc(OC(F)F)c(O[C@H]2CCSC2)c1` [Example 97, (S,E)-1-(3-(tetrahydrothiophen-3-yl)oxy-4-difluoromethoxystyryl)-2,6-dimethylpyridin-4(1H)-one], for which the IC50 was found to be 3.7 nM.
In the case of `Cc1cc(=O)cc(C)n1/C=C/c1ccc(OC(F)F)c(O[C@H]2CCS(=O)(=O)C2)c1` [Example 99, (S,E)-1-(3-(1,1-dioxotetrahydrothiophen-3-yl)oxy-4-difluoromethoxystyryl)-2,6-dimethylpyridin-4(1H)-one], the IC50 was found to be 59 nM.
Consider `Cc1cc(=O)cc(C)n1/C=C/c1ccc(OC(F)F)c(O[C@@H]2CCSC2)c1` [Example 100, (R,E)-1-(3-(tetrahydrothiophen-3-yl)oxy-4-difluoromethoxystyryl)-2,6-dimethylpyridin-4(1H)-one], for which the IC50 amounted to 1.5 nM.
As to `Cc1cc(=O)cc(C)n1/C=C/c1ccc(OC(F)F)c(O[C@@H]2CCS(=O)(=O)C2)c1` [Example 102, (R,E)-1-(3-(1,1-dioxotetrahydrothiophen-3-yl)oxy-4-difluoromethoxystyryl)-2,6-dimethylpyridin-4(1H)-one], the IC50 was found to be 50 nM.
As for `COc1ccc(/C(C)=C/n2c(C)cc(=O)cc2C)cc1OCC1CC1` [Example 103, (E)-1-(2-(3-cyclopropylmethoxy-4-methoxyphenyl)-2-methylethenyl)-2,6-dimethylpyridin-4(1H)-one], the 50% inhibitory concentration (IC50) was found to be 14 nM.
As to `COc1ccc(/C(=C/n2c(C)cc(=O)cc2C)c2ccccc2)cc1OCC1CC1` [Example 104-1, (E)-1-(2-(3-cyclopropylmethoxy-4-methoxyphenyl)-2-phenylethenyl)-2,6-dimethylpyridin-4(1H)-one], the 50% inhibitory concentration (IC50) was found to be 1700 nM.
Take `COc1ccc(/C(=C\n2c(C)cc(=O)cc2C)c2ccccc2)cc1OCC1CC1` [Example 104-2, (Z)-1-(2-(3-cyclopropylmethoxy-4-methoxyphenyl)-2-phenylethenyl)-2,6-dimethylpyridin-4(1H)-one]: the half-maximal inhibitory concentration (IC50) came to 8400 nM.
Turning to `CC#C/C(=C\n1c(C)cc(=O)cc1C)c1ccc(OC)c(OCC2CC2)c1` [Example 105, (Z)-1-(2-(3-cyclopropylmethoxy-4-methoxyphenyl)pent-1-en-3-yn-1-yl)-2,6-dimethylpyridin-4(1H)-one], the IC50 was 3 nM.

For the origin of these results see US11440886B2, “Anti-inflammatory compound, and preparation and use thereof” (E-Nitiate Biopharmaceuticals (Hangzhou) Co., Ltd., priority 2018, dated 2022).
